In ChEMBL document CHEMBL3621059, “Discovery of 4-Aryl-5,6,7,8-tetrahydroisoquinolines as Potent, Selective, and Orally Active Aldosterone Synthase (CYP11B2) Inhibitors: In Vivo Evaluation in Rodents and Cynomolgus Monkeys” (J Med Chem, 2015):
Converted amounts (≈) assume the structure as drawn. The source made the active and inactive calls. The rule behind the calls is not given here.

Columns and labels:
[1] = human, microsomes
Description: Clearance in human microsomes assessed per mg of protein

[2] = rat, microsomes
Description: Clearance in rat microsomes assessed per mg of protein

[3] = target: T1, Cytochrome P450 11B2, mitochondrial (Homo sapiens, UniProt P19099)
T1 sequence (P19099 whole entry): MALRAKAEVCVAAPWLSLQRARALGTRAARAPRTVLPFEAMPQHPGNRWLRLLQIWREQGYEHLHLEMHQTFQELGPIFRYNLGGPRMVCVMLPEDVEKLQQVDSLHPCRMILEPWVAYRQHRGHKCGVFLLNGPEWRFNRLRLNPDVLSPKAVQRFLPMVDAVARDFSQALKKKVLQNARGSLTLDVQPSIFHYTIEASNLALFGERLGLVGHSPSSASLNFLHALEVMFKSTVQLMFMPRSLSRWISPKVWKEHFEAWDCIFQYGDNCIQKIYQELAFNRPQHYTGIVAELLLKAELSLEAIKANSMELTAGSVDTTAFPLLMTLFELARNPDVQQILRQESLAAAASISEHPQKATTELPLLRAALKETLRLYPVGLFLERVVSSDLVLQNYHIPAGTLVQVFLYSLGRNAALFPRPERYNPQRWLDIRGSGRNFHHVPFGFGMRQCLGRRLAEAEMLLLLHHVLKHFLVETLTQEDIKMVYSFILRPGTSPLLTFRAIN
Description: Inhibition of human CYP11B2 expressed in human renal leiomyoblastoma cells using 11-deoxycorticosterone as substrate assessed as formation of aldosterone after 16 hrs by HTRF assay

[4] = mouse, microsomes
Description: Clearance in mouse microsomes assessed per mg of protein

[5] = target: T2, Cytochrome P450 11B2, mitochondrial (Rattus norvegicus, UniProt P30099); test: Inhibition of rat CYP11B2 expressed in renal leiomyoblastoma cells at 500 nM relative to control; type: cell-based
T2 sequence (P30099 whole entry): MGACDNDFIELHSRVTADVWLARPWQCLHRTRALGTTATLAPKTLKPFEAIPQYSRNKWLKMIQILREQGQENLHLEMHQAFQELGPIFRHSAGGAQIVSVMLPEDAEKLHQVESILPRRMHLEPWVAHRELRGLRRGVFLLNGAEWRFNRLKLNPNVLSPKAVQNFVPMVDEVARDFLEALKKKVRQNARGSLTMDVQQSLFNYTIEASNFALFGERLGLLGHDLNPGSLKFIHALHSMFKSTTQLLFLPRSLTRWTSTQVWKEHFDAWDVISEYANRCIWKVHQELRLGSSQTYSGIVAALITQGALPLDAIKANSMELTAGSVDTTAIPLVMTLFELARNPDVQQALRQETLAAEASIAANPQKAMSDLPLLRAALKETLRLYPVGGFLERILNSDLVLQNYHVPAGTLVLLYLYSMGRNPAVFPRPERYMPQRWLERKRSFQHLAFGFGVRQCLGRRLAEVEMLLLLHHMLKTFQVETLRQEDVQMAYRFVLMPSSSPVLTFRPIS

[6] = species: Rattus norvegicus; test: Induction of improvement in glomerular filtration rate in angiotension-2 ZSF1 rat infusion model; type: functional, organism-based
[7] = species: Rattus norvegicus; test: Induction of improvement in renal histology in angiotension-2 ZSF1 rat infusion model; type: functional, organism-based
[8] = species: Rattus norvegicus; test: Reduction of aldosterone level in angiotension-2 ZSF1 rat infusion model; type: functional, organism-based
[9] = physchem; settings: PAMPA
Description: Permeability of the compound by PAMPA

[10] = target: Cytochrome P450 2C9 (Homo sapiens, UniProt P11712)
Cytochrome P450 2C9, sequence (P11712 whole entry): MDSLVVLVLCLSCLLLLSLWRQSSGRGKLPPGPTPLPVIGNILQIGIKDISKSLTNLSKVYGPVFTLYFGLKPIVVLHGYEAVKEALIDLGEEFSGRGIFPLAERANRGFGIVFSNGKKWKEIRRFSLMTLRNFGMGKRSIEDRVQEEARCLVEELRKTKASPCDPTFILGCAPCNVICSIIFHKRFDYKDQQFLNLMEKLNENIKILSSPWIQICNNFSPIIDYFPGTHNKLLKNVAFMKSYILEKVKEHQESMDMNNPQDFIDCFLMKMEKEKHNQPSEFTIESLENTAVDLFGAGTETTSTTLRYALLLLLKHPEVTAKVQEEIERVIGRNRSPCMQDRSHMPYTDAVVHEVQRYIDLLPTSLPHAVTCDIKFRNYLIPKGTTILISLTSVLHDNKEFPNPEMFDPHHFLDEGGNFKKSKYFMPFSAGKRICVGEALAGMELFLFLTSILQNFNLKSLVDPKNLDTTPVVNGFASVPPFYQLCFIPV
Description: Inhibition of CYP2C9 (unknown origin)

[11] = target: Cytochrome P450 3A4 (Homo sapiens, UniProt P08684)
Cytochrome P450 3A4, sequence (P08684 whole entry): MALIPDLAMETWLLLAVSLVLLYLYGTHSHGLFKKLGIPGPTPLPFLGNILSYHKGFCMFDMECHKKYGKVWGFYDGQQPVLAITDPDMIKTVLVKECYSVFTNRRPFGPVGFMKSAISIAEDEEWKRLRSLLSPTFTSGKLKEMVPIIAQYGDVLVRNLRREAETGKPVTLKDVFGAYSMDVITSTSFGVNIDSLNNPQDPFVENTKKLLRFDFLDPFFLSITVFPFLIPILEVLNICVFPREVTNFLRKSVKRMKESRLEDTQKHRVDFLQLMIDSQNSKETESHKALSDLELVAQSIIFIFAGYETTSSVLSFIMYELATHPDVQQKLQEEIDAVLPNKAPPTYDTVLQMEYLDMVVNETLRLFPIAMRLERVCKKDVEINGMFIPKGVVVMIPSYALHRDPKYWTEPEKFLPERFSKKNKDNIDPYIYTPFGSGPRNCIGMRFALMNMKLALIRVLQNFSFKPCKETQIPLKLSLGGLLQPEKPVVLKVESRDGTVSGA
Description: Inhibition of CYP3A4 (unknown origin)

[12] = physchem; settings: 1-octanol/TAPSO buffer, pH 7.4
[13] = target: Cytochrome P450 2D6 (Homo sapiens, UniProt P10635)
Cytochrome P450 2D6, sequence (P10635 whole entry): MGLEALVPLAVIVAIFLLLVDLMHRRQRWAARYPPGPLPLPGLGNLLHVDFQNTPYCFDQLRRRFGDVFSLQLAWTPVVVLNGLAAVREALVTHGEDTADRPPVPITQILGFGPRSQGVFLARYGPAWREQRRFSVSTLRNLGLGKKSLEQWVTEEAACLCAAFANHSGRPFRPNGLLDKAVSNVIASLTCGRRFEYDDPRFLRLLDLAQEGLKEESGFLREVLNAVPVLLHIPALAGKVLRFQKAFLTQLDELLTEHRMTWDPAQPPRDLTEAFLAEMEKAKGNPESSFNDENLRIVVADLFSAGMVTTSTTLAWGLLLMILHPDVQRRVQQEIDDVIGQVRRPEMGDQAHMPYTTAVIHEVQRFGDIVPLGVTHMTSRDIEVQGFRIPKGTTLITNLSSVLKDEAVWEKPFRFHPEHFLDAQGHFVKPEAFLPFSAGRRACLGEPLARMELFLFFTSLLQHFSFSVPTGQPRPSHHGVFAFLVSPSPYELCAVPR
Description: Inhibition of CYP2D6 (unknown origin)

[14] = physchem; settings: phosphate buffer, pH 6.5
Description: Aqueous solubility of the compound in phosphate buffer at pH 6.5 by LYSA method

[15] = target: T3, Cytochrome P450 11B2, mitochondrial (Mus musculus, UniProt P15539)
T3 sequence (P15539 whole entry): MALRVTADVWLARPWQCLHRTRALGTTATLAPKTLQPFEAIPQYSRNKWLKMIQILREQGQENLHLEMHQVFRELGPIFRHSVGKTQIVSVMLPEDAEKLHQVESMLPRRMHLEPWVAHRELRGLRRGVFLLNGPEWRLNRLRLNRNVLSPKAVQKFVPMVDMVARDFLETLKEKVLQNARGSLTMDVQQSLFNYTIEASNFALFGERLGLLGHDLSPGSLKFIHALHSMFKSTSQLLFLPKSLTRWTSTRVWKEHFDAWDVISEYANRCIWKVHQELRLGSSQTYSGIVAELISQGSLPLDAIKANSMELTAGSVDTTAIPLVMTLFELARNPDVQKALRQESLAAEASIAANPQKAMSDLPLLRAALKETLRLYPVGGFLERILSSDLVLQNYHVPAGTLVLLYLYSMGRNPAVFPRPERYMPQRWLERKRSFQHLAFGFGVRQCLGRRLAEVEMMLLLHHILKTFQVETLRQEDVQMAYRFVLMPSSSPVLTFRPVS
Description: Inhibition of mouse CYP11B2 expressed in renal leiomyoblastoma cells

| SMILES | CL [1] [µg/min] | CL [2] [µg/min] | IC50 [3] [nM] | CL [4] [µg/min] | inhibition at 0.5 µM [5] [%] | Papp [9] [×10⁻⁶ cm/s] | IC50 [10] [nM] | IC50 [11] [nM] | logD [12] | IC50 [13] [nM] | solubility [14] [µg/mL] | IC50 [15] [nM] | Activity [6] | Activity [7] | Activity [8] |
| --- | --- | --- | --- | --- | --- | --- | --- | --- | --- | --- | --- | --- | --- | --- | --- |
| N#Cc1ccc(-c2cccnc2)cc1 | < 10 | < 10 | 40 | 53 |  |  |  |  |  |  |  |  |  |  |  |
| O=C1CCc2cc(-c3cncc4ccccc34)ccc2N1 |  |  |  |  | 65 |  |  |  |  |  |  |  |  |  |  |
| COC(=O)[C@@H]1CC2=CC(=O)CC[C@]2(C)[C@@]23O[C@@H]2C[C@@]2(C)[C@@H](CC[C@@]24CCC(=O)O4)[C@H]13 |  |  |  |  |  |  |  |  |  |  |  |  | Active | Active | Active |
| CC(C)C(=O)NC1CCCc2c(-c3ccc(C#N)cc3)cncc21 (racemic) | < 10 | < 10 |  | < 10 |  | > 4.4 | > 50000 | > 50000 | 2.6 | > 50000 | 90 (≈ 282 µM) |  |  |  |  |
| CCC(=O)NC1CCCc2c(-c3ccc(F)c(F)c3)cncc21 (racemic) | < 10 | 85 | 47 | 17 |  | > 4 |  |  | 3 |  | 310 (≈ 980 µM) |  |  |  |  |
| CCC(=O)NC1CCCc2c(-c3ccc(Cl)c(F)c3)cncc21 (racemic) | < 10 | 31 | 14 | 36 |  | > 4 |  |  | 3.6 |  | 99 (≈ 297 µM) |  |  |  |  |

The next lines start with results.

| CL [1] [µg/min] | CL [2] [µg/min] | IC50 [3] [nM] | CL [4] [µg/min] | inhibition at 0.5 µM [5] [%] | Papp [9] [×10⁻⁶ cm/s] | IC50 [10] [nM] | IC50 [11] [nM] | logD [12] | IC50 [13] [nM] | solubility [14] [µg/mL] | IC50 [15] [nM] | SMILES | Activity [6] | Activity [7] | Activity [8] |
| --- | --- | --- | --- | --- | --- | --- | --- | --- | --- | --- | --- | --- | --- | --- | --- |
| < 10 | < 10 | 42 | 12 |  |  |  |  |  |  |  |  | N#Cc1ccc(-c2cncc3c2CCCC3N)cc1 (racemic) |  |  |  |
| < 10 | < 10 | 21 | < 10 |  | > 4.4 | > 50000 | > 50000 | 1.8 | > 50000 | 415 (≈ 1420 µM) |  | CC(=O)NC1CCCc2c(-c3ccc(C#N)cc3)cncc21 (racemic) |  |  |  |
| < 10 | 78 | 27 | < 10 |  | > 4 |  |  | 3.1 |  | 239 (≈ 715 µM) |  | CCC(=O)NC1CCCc2c(-c3cc(F)c(F)cc3F)cncc21 (racemic) |  |  |  |
| < 10 | 46 | 28 | 21 |  | > 4 |  |  | 3.6 |  | 129 (≈ 388 µM) |  | CCC(=O)NC1CCCc2c(-c3ccc(Cl)cc3F)cncc21 (racemic) |  |  |  |
|  |  |  |  |  |  |  |  |  |  |  | 210 | N#Cc1ccc([C@H]2CCc3cncn32)c(F)c1 [OSILODROSTAT] |  |  |  |
